Source: US20030229079A1 (published 2003)

melting point: 128 to 129 °C
SMILES: O=C(CC(=O)c1cccn1Cc1ccc(F)cc1)c1ccncn1
